Experimental data from ChEMBL document CHEMBL3994622, “Design and synthesis of new RAF kinase-inhibiting antiproliferative quinoline derivatives. Part 2: Diarylurea derivatives” (Eur J Med Chem, 2017).

How the values were obtained:
Type in all cases: functional
RPMI-8226 = assay: Growth inhibition of human RPMI8226 cells assessed as cell growth at 10 uM incubated for 48 hrs by sulforhodamine B assay relative to control; conditions: RPMI-8226, 48 h, read-out: Activity
PC-3 [1] = assay: Growth inhibition of human PC3 cells incubated for 48 hrs by sulforhodamine B assay; conditions: PC-3, 48 h
HCC 2998 = assay: Growth inhibition of human HCC2998 cells assessed as cell growth at 10 uM incubated for 48 hrs by sulforhodamine B assay relative to control; conditions: HCC 2998, 48 h, read-out: Activity
SNB-75 = assay: Growth inhibition of human SNB75 cells assessed as cell growth at 10 uM incubated for 48 hrs by sulforhodamine B assay relative to control; conditions: SNB-75, 48 h, read-out: Activity
BT-549 = assay: Growth inhibition of human BT549 cells assessed as cell growth at 10 uM incubated for 48 hrs by sulforhodamine B assay relative to control; conditions: BT-549, 48 h, read-out: Activity
DU-145 [2] = assay: Growth inhibition of human DU145 cells assessed as cell growth at 10 uM incubated for 48 hrs by sulforhodamine B assay relative to control; conditions: DU-145, 48 h, read-out: Activity
RXF 393 = assay: Growth inhibition of human RXF393 cells assessed as cell growth at 10 uM incubated for 48 hrs by sulforhodamine B assay relative to control; conditions: RXF 393, 48 h, read-out: Activity
NCI/ADR-RES = assay: Growth inhibition of human NCI/ADR-RES cells assessed as cell growth at 10 uM incubated for 48 hrs by sulforhodamine B assay relative to control; conditions: read-out: Activity
T47D = assay: Growth inhibition of human T47D cells incubated for 48 hrs by sulforhodamine B assay
NCI-H460 = assay: Growth inhibition of human NCI-H460 cells incubated for 48 hrs by sulforhodamine B assay; conditions: NCI-H460, 48 h
A498 = assay: Growth inhibition of human A498 cells incubated for 48 hrs by sulforhodamine B assay; conditions: A498, 48 h
U-251 = assay: Growth inhibition of human U251 cells incubated for 48 hrs by sulforhodamine B assay; conditions: U-251, 48 h
SK-OV-3 = assay: Growth inhibition of human SKOV3 cells assessed as cell growth at 10 uM incubated for 48 hrs by sulforhodamine B assay relative to control; conditions: SK-OV-3, 48 h, read-out: Activity
PC-3 [3] = assay: Growth inhibition of human PC3 cells assessed as cell growth at 10 uM incubated for 48 hrs by sulforhodamine B assay relative to control; conditions: PC-3, 48 h, read-out: Activity
SN12C = assay: Growth inhibition of human SN12C cells assessed as cell growth at 10 uM incubated for 48 hrs by sulforhodamine B assay relative to control; conditions: read-out: Activity
EKVX = assay: Growth inhibition of human EKVX cells assessed as cell growth at 10 uM incubated for 48 hrs by sulforhodamine B assay relative to control; conditions: read-out: Activity
UACC-257 = assay: Growth inhibition of human UACC257 cells assessed as cell growth at 10 uM incubated for 48 hrs by sulforhodamine B assay relative to control; conditions: UACC-257, 48 h, read-out: Activity
HCT-116 = assay: Growth inhibition of human HCT116 cells assessed as cell growth at 10 uM incubated for 48 hrs by sulforhodamine B assay relative to control; conditions: HCT-116, 48 h, read-out: Activity
OVCAR-8 = assay: Growth inhibition of human OVCAR8 cells assessed as cell growth at 10 uM incubated for 48 hrs by sulforhodamine B assay relative to control; conditions: OVCAR-8, 48 h, read-out: Activity
SW-620 = assay: Growth inhibition of human SW620 cells assessed as cell growth at 10 uM incubated for 48 hrs by sulforhodamine B assay relative to control; conditions: SW-620, 48 h, read-out: Activity
OVCAR-3 = assay: Growth inhibition of human OVCAR3 cells incubated for 48 hrs by sulforhodamine B assay; conditions: OVCAR-3, 48 h
IGROV-1 = assay: Growth inhibition of human IGROV1 cells incubated for 48 hrs by sulforhodamine B assay; conditions: IGROV-1, 48 h
SK-MEL-28 = assay: Growth inhibition of human SK-MEL-28 cells assessed as cell growth at 10 uM incubated for 48 hrs by sulforhodamine B assay relative to control; conditions: SK-MEL-28, 48 h, read-out: Activity
MDA-MB-231 = assay: Growth inhibition of human MDA-MB-231 cells assessed as cell growth at 10 uM incubated for 48 hrs by sulforhodamine B assay relative to control; conditions: MDA-MB-231, 48 h, read-out: Activity
Hs-578T = assay: Growth inhibition of human Hs 578T cells assessed as cell growth at 10 uM incubated for 48 hrs by sulforhodamine B assay relative to control; conditions: read-out: Activity
KM12 = assay: Growth inhibition of human KM12 cells assessed as cell growth at 10 uM incubated for 48 hrs by sulforhodamine B assay relative to control; conditions: KM12, 48 h, read-out: Activity
NCI-H522 = assay: Growth inhibition of human NCI-H522 cells assessed as cell growth at 10 uM incubated for 48 hrs by sulforhodamine B assay relative to control; conditions: NCI-H522, 48 h, read-out: Activity
DU-145 [4] = assay: Growth inhibition of human DU145 cells incubated for 48 hrs by sulforhodamine B assay; conditions: DU-145, 48 h
MOLT-4 = assay: Growth inhibition of human MOLT4 cells assessed as cell growth at 10 uM incubated for 48 hrs by sulforhodamine B assay relative to control; conditions: MOLT-4, 48 h, read-out: Activity
HOP-62 = assay: Growth inhibition of human HOP62 cells assessed as cell growth at 10 uM incubated for 48 hrs by sulforhodamine B assay relative to control; conditions: HOP-62, 48 h, read-out: Activity
M14 = assay: Growth inhibition of human M14 cells assessed as cell growth at 10 uM incubated for 48 hrs by sulforhodamine B assay relative to control; conditions: M14, 48 h, read-out: Activity
CCRF-CEM = assay: Growth inhibition of human CCRF-CEM cells assessed as cell growth at 10 uM incubated for 48 hrs by sulforhodamine B assay relative to control; conditions: read-out: Activity
SR = assay: Growth inhibition of human SR cells assessed as cell growth at 10 uM incubated for 48 hrs by sulforhodamine B assay relative to control; conditions: read-out: Activity
[5] = read-out: LC50 (the source's name)

Work on `Cc1nc2cc(O)c(O)cc2cc1Oc1ccc(NC(=O)Nc2ccc(Cl)c(Cl)c2)cc1` yielded a growth at 10 µM (RPMI-8226) of 75.7%, a GI50 (PC-3 [1]) of 4.36 µM and a TGI (PC-3 [1]) of over 32.5 µM. It also gave a CC50 (PC-3 [1]; [5]) of over 32.5 µM, a growth at 10 µM (HCC 2998) of 93.4% and a growth at 10 µM (SNB-75) of 75.8%. It also gave a growth at 10 µM (BT-549) of 82.2%, a growth at 10 µM (DU-145 [2]) of 60.3% and a growth at 10 µM (RXF 393) of 20.4%. For the same molecule, the growth at 10 µM (NCI/ADR-RES) was 59%, the GI50 (T47D) was 11.6 µM and the TGI (T47D) was over 32.5 µM. For the same molecule, the CC50 (T47D; [5]) was over 32.5 µM, the GI50 (NCI-H460) was 6.95 µM and the TGI (NCI-H460) was 15.8 µM. It also gave a CC50 (NCI-H460; [5]) of over 32.5 µM, a GI50 (A498) of over 32.5 µM and a TGI (A498) of over 32.5 µM. For the same molecule, the CC50 (A498; [5]) was over 32.5 µM, the GI50 (U-251) was 6.58 µM and the TGI (U-251) was over 32.5 µM. The CC50 (U-251; [5]) was over 32.5 µM, the growth at 10 µM (SK-OV-3) was 45% and the growth at 10 µM (PC-3 [3]) was 39.3%. For the same molecule, the growth at 10 µM (SN12C) was 85.7%, the growth at 10 µM (EKVX) was 98.5% and the growth at 10 µM (UACC-257) was 88.5%. The growth at 10 µM (HCT-116) was 44.6%, the growth at 10 µM (OVCAR-8) was 47.7% and the growth at 10 µM (SW-620) was 49.3%. For the same molecule, the GI50 (OVCAR-3) was 8.52 µM, the TGI (OVCAR-3) was 19.9 µM and the CC50 (OVCAR-3; [5]) was over 32.5 µM. For the same molecule, the GI50 (IGROV-1) was 12.3 µM, the TGI (IGROV-1) was over 32.5 µM and the CC50 (IGROV-1; [5]) was over 32.5 µM. For the same molecule, the growth at 10 µM (SK-MEL-28) was 79.1%, the growth at 10 µM (MDA-MB-231) was 45% and the growth at 10 µM (Hs-578T) was 105%. It also gave a growth at 10 µM (KM12) of 74.7%, a growth at 10 µM (NCI-H522) of 1.87% and a GI50 (DU-145 [4]) of 7.26 µM. It also gave a TGI (DU-145 [4]) of 25.2 µM, a CC50 (DU-145 [4]; [5]) of over 32.5 µM and a growth at 10 µM (MOLT-4) of 12.6%. The growth at 10 µM (HOP-62) was 35.7%, the growth at 10 µM (M14) was 80.8% and the growth at 10 µM (CCRF-CEM) was 19.9%. It also gave a growth at 10 µM (SR) of 8.92%.
